Earlier results as cited in US20090155363A1, “METHODS FOR ORAL ADMINISTRATION OF ACTIVE DRUGS” (priority 2007, published 2009).

Conditions: drug mixed with foods such as applesauce or vegetable juice, relative to administration of a nizatidine capsule with water

Structure (SMILES): CNC(=C[N+](=O)[O-])NCCSCc1csc(CN(C)C)n1 [nizatidine]
- reduction of bioavailability: 30 to 40%
